Measured values taken from publication PMC6058575, “Enhanced anti-hepatocarcinoma efficacy by GLUT1 targeting and cellular microenvironment-responsive PAMAM–camptothecin conjugate” (Drug Delivery, 2017).
Where two headings read alike, the source gives them in different places.

Key:
HepG2 MCTS = assay: Uptake in multicellular tumor spheroids (MCTS), CLSM; format: cell-based; details: 1 μM, 8 h, 100 µm depth
Experimental: Besides that, a multicellular tumor spheroids (MCTS) model, which was more suitable for mimicking the tumor microenvionment, was also employed as a supplement to monolayer cell model for better estimating in vitro targeting efficacy (Kunz-Schughart, [1999]). MCTS model was established by the liquid overlay method as described before (Friedrich et al., [2008]). Briefly, HepG2 cells were seeded in 96-well plates coated with 2% agarose at 2 × 10^3 cells per well and incubated for 5 d. […] Thereafter, MCTS were collected by centrifugation, washed with PBS, and observed by confocal laser scanning microscope (CLSM) (Olympus FV1000, Tokyo, Japan) at 100 µm depth of the MCTS (about the middle section of the sphere).

[1] = system: HepG2 cells (GLUT1-overexpressing); details: 1 μM CPT, flow cytometry
Experimental: HepG2 and L02 cells were seeded into 96-well culture plates at a density of 1.2 × 10^4 cells/well and incubated for 24 h. After the confluency and morphology were checked, 1 μM conjugates (calculated from CPT) were added to each well and co-incubated with the cells for different times (1, 4, and 8 h). […] The D-GLU was a substrate as well as inhibitor of GLUT1. Then, the GPCC conjugate was co-incubated with the cells for 4 h. At the end of the incubation time, the conjugate solutions were withdrawn from the wells, and the cells were washed three times with cold PBS. After fixation with 4% paraformaldehyde, the cells were qualitatively analyzed by fluorescence microscopy (IX71, Olympus, Tokyo, Japan). After trypsinization and re-suspension of the cells in PBS (pH 7.4), the fluorescence intensity was quantitatively analyzed by flow cytometry (BD FACSAria III, Piscataway, NJ).

HepG2 cells [2] = assay: Cell-cycle analysis by flow cytometry (PI); format: cell-based; details: 1 μM CPT, 24 h, control cells 21.30%
Experimental: The cell-cycle percentage of HepG2 was analyzed using flow cytometer. […] After 24 h, the cells were trypsinized, washed with PBS, and fixed with 4 °C pre-cooling 70% ethanol overnight at −20 °C. […] Finally, the cells were stained with propidium iodide (PI) solution for 20 min and determined by flow cytometer.

HepG2 cells [3] = assay: Subcellular localization by CLSM; format: cell-based; details: 1 μM CPT, 4 h
Experimental: HepG2 and L02 cells were seeded on cover glasses embedded in 24-well culture plates at densities of 5 × 10^4 cells/well. After 24 h, conjugates were added at a 1 μM CPT concentration and co-incubated with the cells for 4 h at 37 °C. Then, after the conjugate solutions were removed, the cells were treated with 50 nM MitoTracker deep red for 30 min and 10 mM Basic Orange 14 for 10 min to stain mitochondria and nuclei, respectively (Paleos et al., [2016]). Then, the cells were fixed with 4% paraformaldehyde, washed three times with ice-cold PBS (pH 7.4), and visualized using CLSM.

HepG2 cells [4] = assay: Apoptosis assay, Annexin V-FITC/PI double staining; format: cell-based; details: 1 μM CPT, 24 h
Experimental: The apoptosis induction effect of conjugates on HepG2 cells was detected by Annexin V-FITC/PI double staining method. […] After 24 h, the cells were trypsinized (without EDTA), washed with PBS (containing 2% BSA), stained by 5 μL of Annexin V-FITC and 5 μL of 100 μg/mL PI, and re-suspended in 500 μL of binding buffer. After 15 min incubation, cells were determined by flow cytometer.

H22 tumor-bearing mice [5] = system: H22 tumor-bearing mice
Experimental: (§1) An H22 tumor-bearing mice model was established based on previously reported method (Li et al., [2014]). Ascitic fluid containing H22 cells was extracted and diluted with PBS (pH 7.0) to 1 × 10^7 cells/ml. The mice (20–22 g) were anesthetized with 5% chloral hydrate and subcutaneously injected with 0.2 ml of cell suspension for armpit tumor implantation. All animal studies were approved by the China Animal Care and Use Committee and carried out according to the Guide for the Care and Use of Laboratory Animals of Beijing University of Chinese Medicine.
(§2) The tumor-bearing mice were randomly divided into five groups (10 per group). The control group mice were administered saline. […] Body weights were recorded daily. At day 12, four mice of each group were sacrificed by carbon dioxide asphyxiation. Tumors, livers and spleens were collected and fixed with 10% paraformaldehyde for 48 h. These tissues were cut into […] sections and processed for H&E staining. The remaining […] in each group were also sacrificed, and the tumors were collected and weighed.

H22 tumor-bearing mice [6] = assay: Toxicity in the efficacy study (body weight, H&E staining); format: in vivo; details: for H&E histology of liver and spleen: 1 mg/kg CPT i.v., day 12
Experimental: as §2

[7] = Pharmacokinetic study after intravenous administration; format: in vivo; details: rats; for maximum plasma drug concentration: 1.5 mg/kg CPT i.v., 5 min post administration
Experimental: The rats were fasted for 12 h with free access to water before the experiment. Briefly, 0.5 ml of blood was collected in centrifuge tubes at predefined times of 0.083, 0.33, 0.5, 1, 2, 4, 8, 12, and 24 h. Blood samples were centrifuged at 15,000 rpm for 15 min at 4 °C to isolate plasma fractions. Then, 100 μL of methanol was added to the plasma, and the mixture was extracted with 2 mL hexane and 1 mL dichloromethane. The mixture was vortexed for 10 min and centrifuged at 15,000 rpm for 15 min, and the supernatant was collected and dried using a stream of nitrogen gas. The resultant residue was redissolved in 200 μL methanol and stored at −20 °C until further analysis.

H22 tumor-bearing mice [8] = assay: In vivo and ex vivo imaging of tumor targeting; details: in vivo imaging, 1 mg/kg CPT i.v.
Experimental: as §1
Mice were intravenously injected with conjugates at 1 mg/kg CPT concentration. […] Afterward, the tumor-bearing mice were immediately sacrificed by carbon dioxide asphyxiation. Subsequently, major organs (such as tumor, liver, spleen, brain, heart, kidney, and lung) were harvested and visualized.

L02 cells = assay: MTT cytotoxicity; format: cell-based; details: 24 h
Experimental: The cytotoxicity of different conjugates on HepG2 and L02 cells was determined using 3-(4,5-dimethyl-2-thiazolyl)-2,5-diphenyl-2-H-tetrazolium bromide (MTT) method. The cells were seeded in 96-well culture plates at a density of 5 × 10^3 cells/well. Then the cells were treated with conjugates and free CPT at CPT concentrations ranging from 3 nM to 20 μM at 37 °C for 24 h when 60–70% confluence was reached. After that, the drug solution was replaced with MTT at a concentration of 5 mg/mL, and co-incubated with cells for another 4 h. The supernatant was discarded and adding with 150 μL DMSO to dissolve the MTT-formazan. The absorbance at 492 nm was recorded using a microplate reader.

[9] = Particle size by dynamic light scattering (DLS); format: physicochemical; details: conjugates at 10 mg/ml
Experimental: The particle sizes and zeta potential of different conjugates at 10 mg/ml were determined using a dynamic light scattering (DLS) particle size analyzer (Nicomp 380 Zeta Potential/Particle Sizer, Santa Barbara, CA). Following staining with 2% sodium phosphotungstate solution, the conjugate morphologies were observed using transmission electron microscopy (TEM) at an accelerating voltage of 100 kV (JEM 1400 JOEL, Akishima City, Tokyo Prefecture, Japan).

[10] = In vitro CPT release by dialysis in PBS with GSH; format: physicochemical; details: compared with MPCC and GPCC
Experimental: A dialysis method was used to determine the in vitro CPT release of conjugates. Conjugates at concentrations of 1 mg/ml were placed in dialysis bags (MWCO 3500 Da) and immersed in 50 ml PBS (pH 7.4) containing different concentrations of GSH (0 μM, 10 μM and 10 mM) to mimic various cellular microenvironment conditions. The drug release was conducted at 100 rpm and 37 °C. During dialysis, 1 ml aliquots were withdrawn from the release medium at predefined intervals, and 1 ml of fresh release medium was added to maintain a constant total volume. The CPT concentrations were determined by HPLC.

[11] = rat, plasma, iv, 1.5 mg/kg, 1.5 mg CPT/kg i.v., two-compartment model
[12] = 1.5 mg CPT/kg i.v., two-compartment model

Glucose–PEG–PAMAM-s-s–Camptothecin-Cy7 [GPCC]
cellular uptake in MCTS (HepG2 MCTS): obviously stronger cellular uptake than the MPCC conjugate
cellular uptake relative to MPCC [1]: approximately two-fold
S phase percentage (HepG2 cells [2]): 37.15%
subcellular localization (HepG2 cells [3]): accumulated in HepG2 nuclei more than the MPCC conjugate
apoptosis induction effect (HepG2 cells [4]): increased obviously
tumor inhibition (H22 tumor-bearing mice [5]; 1 mg/kg CPT i.v. on days 0, 2, 4, 6, 8, 10, versus CPT suspension and other conjugate groups, p < .05): significantly better tumor inhibition rates
H&E histology of tumor tissue (H22 tumor-bearing mice [5]; 1 mg/kg CPT i.v., day 12): widespread necrosis in tumor tissues
tumor weight (H22 tumor-bearing mice [5]; 1 mg/kg CPT i.v., end of experiment, p < .05): significantly less than that of the MPCC conjugate

CC[C@@]1(O)C(=O)OCc2c1cc1n(c2=O)Cc2cc3ccccc3nc2-1 [CPT, camptothecin]
body weight change (H22 tumor-bearing mice [6]; 1 mg/kg CPT i.v. on days 0, 2, 4, 6, 8, 10): smallest increase
H&E histology of liver and spleen (H22 tumor-bearing mice [6]): significant hepatotoxicity and spleen toxicity
AUC(0-inf) [7, 11]: 753 ± 92 ng·h/mL
AUC(0-t) [7, 11]: 748 ± 92 ng·h/mL
Tmax [7, 11]: 1.98 min
clearance [7, 11]: 33.6 mL/min/kg
half-life [7, 11]: 9.9 ± 8.04 min
Cmax ([7]; rat, plasma, iv, 1.5 mg/kg, 1.5 mg CPT/kg i.v., two-compartment model, read-out: Cmax): 917 ± 50 ng/mL
MRT last ([7]; rat, plasma, iv, 1.5 mg/kg, 1.5 mg CPT/kg i.v., two-compartment model, read-out: MRT(0–t)): 2.4 ± 0.288 h
MRT inf ([7]; rat, plasma, iv, 1.5 mg/kg, 1.5 mg CPT/kg i.v., two-compartment model, read-out: MRT(0–∞)): 2.59 ± 0.291 h
Vd ([7]; rat, plasma, iv, 1.5 mg/kg, 1.5 mg CPT/kg i.v., two-compartment model, read-out: V (apparent volume of distribution)): 10.6 ± 1.18 L/kg
maximum plasma drug concentration [7]: 0.92 µg/mL
S phase percentage (HepG2 cells [2]): 27.49%
subcellular localization (HepG2 cells [3]): hardly observed in the cells
apoptosis induction effect (HepG2 cells [4]): highest apoptosis induction effect

mPEG–PAMAM–CPT–Cy7 [MPCC]
time of maximum distribution at tumor sites (H22 tumor-bearing mice [8]): 4 h
AUC(0–t) [7, 12]: 4677 ± 654 ng·h/mL
AUC(0–∞) [7, 12]: 4895 ± 620 ng·h/mL
CL [7, 12]: 5.17 ± 0.617 mL/min/kg
Cmax [7, 12]: 3807 ± 144 ng/mL
MRT(0–t) [7, 12]: 4.341 ± 0.9 h
MRT(0–∞) [7, 12]: 5.81 ± 1.141 h
V (apparent volume of distribution) [7, 12]: 3.207 ± 1.638 L/kg
t1/2 [7, 12]: 0.258 ± 0.027 h
maximum plasma drug concentration [7]: 3.81 µg/mL
S phase percentage (HepG2 cells [2]): 32.94%
cytotoxicity (L02 cells): lower than that of PCC
particle size (DLS) [9]: 19.6 nm

PAMAM–CPT–Cy7 [PCC]
H&E histology of liver and spleen (H22 tumor-bearing mice [6]): significant hepatotoxicity and spleen toxicity
cellular uptake in MCTS (HepG2 MCTS): obviously stronger cellular uptake than the MPCC conjugate
fluorescence in tumor sites (H22 tumor-bearing mice [8]): slight fluorescence
AUC(0–t) [7, 12]: 3594 ± 665 ng·h/mL
AUC(0–∞) [7, 12]: 4038 ± 505 ng·h/mL
CL [7, 12]: 6.27 ± 0.767 mL/min/kg
Cmax [7, 12]: 2530 ± 330 ng/mL
MRT(0–t) [7, 12]: 5.042 ± 0.225 h
MRT(0–∞) [7, 12]: 9.566 ± 6.991 h
V (apparent volume of distribution) [7, 12]: 5.104 ± 3.531 L/kg
t1/2 [7, 12]: 0.398 ± 0.045 h
maximum plasma drug concentration [7]: 2.53 µg/mL
S phase percentage (HepG2 cells [2]): 34.7%
subcellular localization (HepG2 cells [3]): accumulated in the nuclei of the HepG2 cells
particle size (DLS) [9]: 17.6 nm
CPT release rate [10]: slightly increased release rate
